We go through three compounds from ChEMBL document CHEMBL1275579, “Plasmid-mediated 16S rRNA methylases in aminoglycoside-resistant Enterobacteriaceae isolates in Shanghai, China” (2009).

The test system of one test is Enterobacteriaceae. Description: Antibacterial activity against 16S rRNA methylase and beta-lactamase producing Enterobacteriaceae by CLSI method. In kind it is functional.
A further test has as its system Enterobacter cloacae. Description: Antibacterial activity against armA-positive Enterobacter cloacae expressing KPC-2 beta-lactamase by CLSI method. The test is classed as functional.

A value given as a limit tells only on which side of the number the result lay.

As a reminder, the MIC50 is the lowest concentration that inhibits either 50% of growth or 50% of the strains tested, depending on the study. A higher MIC50 goes with lower susceptibility. The MIC90 is the lowest concentration that inhibits either 90% of growth or 90% of the strains tested, depending on the study. A lower MIC90 goes with higher susceptibility. As for `NCC[C@H](O)C(=O)N[C@@H]1C[C@H](N)[C@@H](O[C@H]2O[C@H](CN)[C@@H](O)[C@H](O)[C@H]2O)[C@H](O)[C@H]1O[C@H]1O[C@H](CO)[C@@H](O)[C@H](N)[C@H]1O` [AMIKACIN], in the test on Enterobacteriaceae, the MIC50 was greater than 256 µg/mL and the MIC90 was greater than 256 µg/mL.

The term MIC denotes the lowest concentration found to suppress growth. Low values mean greater potency, high ones weaker potency. On to `C[C@@H](O)[C@H]1C(=O)N2C(C(=O)O)=C(SCCNC=N)C[C@H]12` [IMIPENEM ANHYDROUS], for which, in the test with Enterobacter cloacae, the MIC is greater than 32 µg/mL.

For GENTAMICIN, in the test with Enterobacteriaceae, the MIC50 was greater than 256 µg/mL and the MIC90 was greater than 256 µg/mL.
